The subject of data set [1] is Leishmania infantum. Description: Antiparasitic activity against Leishmania infantum promastigotes infected in mouse RAW264.7 cells measured after 48 hrs. It counts as functional, organism-based. Particulars: RAW264.7, 48 h.
Data set [2] deals with Leishmania amazonensis. Kind of data set: Antiparasitic activity against Leishmania amazonensis promastigotes infected in mouse RAW264.7 cells measured after 48 hrs. The format is functional, organism-based. Particulars: for IC50: RAW264.7, 48 h.
The nature of data set [3]: Selectivity index, ratio of CC50 for mouse RAW264.7 cells to IC50 for Leishmania amazonensis amastigotes infected in mouse RAW264.7 cells. Particulars: read-out: Ratio CC50/IC50. It counts as toxicity, cell-based.
Data set [4] in a line: Cytotoxicity against mouse RAW264.7 cells measured after 48 hrs. It counts as toxicity, cell-based.
A short description of data set [5]: Selectivity index, ratio of CC50 for mouse RAW264.7 cells to IC50 for Leishmania amazonensis promastigotes infected in mouse RAW264.7 cells. The format is toxicity, cell-based. Particulars: read-out: Ratio CC50/IC50.
A short description of data set [6]: Selectivity index, ratio of CC50 for mouse RAW264.7 cells to IC50 for Leishmania infantum amastigotes infected in mouse RAW264.7 cells. It counts as toxicity, cell-based. Particulars: read-out: Ratio CC50/IC50.
Data set [7] concerns Leishmania amazonensis. Description: Antiparasitic activity against Leishmania amazonensis amastigotes infected in mouse RAW264.7 cells measured after 48 hrs. It counts as functional, organism-based. Particulars: RAW264.7, 48 h.
Data set [8] relates to Leishmania infantum. Description: Antiparasitic activity against Leishmania infantum amastigotes infected in mouse RAW264.7 cells measured after 48 hrs. The format is functional, organism-based. Particulars: RAW264.7, 48 h.
Data set [9] is described as follows: Selectivity index, ratio of CC50 for mouse RAW264.7 cells to IC50 for Leishmania infantum promastigotes infected in mouse RAW264.7 cells. Particulars: read-out: Ratio CC50/IC50. The format is toxicity, cell-based.
Data set [10] concerns Trypanosoma cruzi. Kind of data set: Antitrypanosomal activity against Trypanosoma cruzi Tulahuen expressing beta-galactosidase gene infected in mouse L929 cells measured after 120 hrs. The format is functional, organism-based. Particulars: L929, 120 h.
The target of data set [11] is Cruzipain (Trypanosoma cruzi) (UniProt P25779). Kind of data set: Inhibition of Trypanosoma cruzi cruzain at 100 uM relative to control.
Data set [12] concerns Trypanosoma cruzi. Kind of data set: Antitrypanosomal activity against tissue-culture derived trypomastigote form of Trypanosoma cruzi Y measured after 120 hrs. The format is functional.
Data set [13] relates to Trypanosoma cruzi. Kind of data set: Antitrypanosomal activity against bloodstream trypomastigote form of Trypanosoma cruzi Y measured after 24 hrs. It counts as functional, organism-based.
Data set [14] can be described thus: Selectivity index, ratio of CC50 for mouse L929 cells to IC50 for Trypanosoma cruzi Tulahuen expressing beta-galactosidase gene infected in mouse L929 cells. It counts as toxicity, cell-based. Particulars: read-out: Ratio CC50/IC50.
Data set [15] can be described thus: Cytotoxicity against mouse L929 cells assessed as inhibition of cell viability measured after 120 hrs. The format is toxicity, cell-based.
Data set [16] in a line: Selectivity index, ratio of LC50 for mouse peritoneal macrophage cells to IC50 for bloodstream trypomastigote form of Trypanosoma cruzi Y. The format is toxicity. Particulars: peritoneal macrophages, read-out: Ratio LC50/IC50.
Data set [17] can be described thus: Cytotoxicity against non-infected mouse peritoneal macrophage cells measured after 24 hrs. The format is toxicity, cell-based. Particulars: non-infected peritoneal macrophages, read-out: LC50.
The test system of data set [18] is Leishmania infantum. Kind of data set: Antiparasitic activity against Leishmania infantum. It counts as functional, organism-based.
Data set [19] relates to Trypanosoma cruzi. Kind of data set: Potency index, ratio of benznidazole IC50 to test compound IC50 for antitrypanosomal activity against Trypanosoma cruzi Tulahuen expressing beta-galactosidase gene infected in mouse L929 cells measured after 120 hrs. It counts as functional.

Molecules are shown by their SMILES. Calls of active or inactive are those of the source. The rule behind the calls is not given here. Bounds are passed on as bounds.

Sequence of Cruzipain (Trypanosoma cruzi) (P25779 123-467 limits assumed): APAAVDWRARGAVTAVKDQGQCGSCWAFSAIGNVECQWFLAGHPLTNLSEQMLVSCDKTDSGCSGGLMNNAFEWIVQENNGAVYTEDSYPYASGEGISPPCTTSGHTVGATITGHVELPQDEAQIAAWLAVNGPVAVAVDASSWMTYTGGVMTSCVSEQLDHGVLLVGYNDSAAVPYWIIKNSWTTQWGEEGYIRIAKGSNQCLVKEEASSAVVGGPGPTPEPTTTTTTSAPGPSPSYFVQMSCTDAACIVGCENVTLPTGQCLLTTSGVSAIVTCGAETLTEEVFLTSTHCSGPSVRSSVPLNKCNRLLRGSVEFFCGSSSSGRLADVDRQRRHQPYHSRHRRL

Take `CCCCCCCCCCCCCCCCOP(=O)([O-])OCC[N+](C)(C)C` [MILTEFOSINE]: the IC50 (commonly the concentration needed to halve the response being measured) amounted to 3.92 µM in data set [1], 5.2 µM in data set [2], 1.67 µM in data set [7] and 1.72 µM in data set [8]. For the same compound, the selectivity ratio in [3] was determined as 13.1; in [5] it was 4.2; in [6] it was 12.7; in data set [9], 5.6. In data set [4], this compound gave a CC50 at 48 h of 21.8 µM.

On to `COc1ccc(/C=N/NC(=O)c2nc3ccccc3[nH]2)cc1O`, for which the IC50 in data set [1] was 191 µM; in data set [10] it was 24.8 µM; in [7], 136 µM; in [8] it was 52.5 µM; in [13], 123 µM. Moreover, in data set [2], the outcome was inactive. Besides, the selectivity ratio in data set [3] came out at 0.7; in data set [6], 1.7; in [14], 6.2; in data set [16], 1; in data set [9], 0.5. This compound came in with a CC50 at 48 h in [4] of 88.9 µM. Also, the inhibition (in general, the change of the read-out against control, counted positive when it falls) in data set [11] stood at 58%. Besides, the LC50 (commonly the concentration lethal to half of the exposed cells or organisms) in data set [12] stood at 203 µM. Also, the CC50 at 120 h in data set [15] came to 153 µM. Also, the CC50 at 24 h in [17] turned out to be 120 µM.

For `O=C(N/N=C/c1ccccc1O)c1nc2ccccc2[nH]1`, the IC50 in [1] is 23.9 µM; in [10] it was 3.6 µM; in data set [7], 104 µM; in data set [8], 21.8 µM; in [13], over 500 µM. Further, the outcome in data set [2] was inactive. For the same compound, the selectivity ratio in data set [3] worked out at 0.3; in data set [6], 1.3; in [14], 14.7; in [9], 1.2. The compound also came in with a CC50 at 48 h in data set [4] of 29.2 µM. Also, the inhibition in data set [11] was 4%. Further, the LC50 in data set [12] came out at 19.9 µM. In data set [15], the CC50 at 120 h is 52.4 µM.

With `CCCn1c(NC(=O)Cc2ccc(Cl)cc2)nc2ccccc21`, in data set [18], the IC50 came to 12 µM.

In the case of `O=C(N/N=C/c1ccc(O)c(O)c1)c1nc2ccccc2[nH]1`, the IC50 in data set [1] was found to be 90.8 µM; in data set [10] it was 72.9 µM; in [2] it was 170 µM; in data set [7], 62.1 µM; in data set [8], 37.8 µM; in [13], 144 µM. Moreover, the selectivity ratio in data set [3] worked out at 0.2; in data set [5], 0.09; in [6], 0.4; in data set [14] it was 1.4; in data set [16], 0.9; in data set [9], 0.2. Besides, the CC50 at 48 h in [4] turned out to be 14.8 µM. Further, the inhibition in data set [11] is 61%. The same compound returned an LC50 in [12] of 98.2 µM. Also, in [15], the CC50 at 120 h is 102 µM. The CC50 at 24 h in [17] worked out at 128 µM.

Turning to `O=C(N/N=C/c1ccc([N+](=O)[O-])o1)c1nc2ccccc2[nH]1`, the IC50 was 28.7 µM in data set [1]; 0.033 µM in [10]; 18.4 µM in data set [7]; 61.8 µM in data set [8]; 304 µM in data set [13]. Moreover, in data set [2], the result was inactive. The selectivity ratio in data set [3] is 1.4; in data set [6], 0.4; in data set [14] it was 7680; in data set [16], over 1.6; in [9] it was 0.9. The compound also came in with a CC50 at 48 h in data set [4] of 25.7 µM. The inhibition in data set [11] was 18%. Besides, in data set [12], the LC50 came to 15 µM. For the same compound, the CC50 at 120 h in data set [15] was 257 µM. In addition, the CC50 at 24 h in data set [17] was over 500 µM. Also, the “Ratio IC50” value in data set [19] is given as 46.

Values taken from ChEMBL document CHEMBL5576098, “Synthesis and activity of benzimidazole N-Acylhydrazones against Trypanosoma cruzi, Leishmania amazonensis and Leishmania infantum” (Bioorg Med Chem Lett, 2024).
